Data: US10660933B2, “Compositions and methods for inhibition of bacterial infections in human endocervix” (priority 2015, dated 2020)
“Also recorded” adds a separate entry of the source. Ends that are not written are not given here.

Assays:
polarized T84 cells [1] = test: Ng-induced exfoliation of polarized T84 monolayers (3D-CFM); format: cell-based, human; conditions: 6 h, inhibitor 1 h before and during, ML-7 10 μM, PIK 100 μM, Y27632 10 μM; for exfoliation of MS11ΔOpa-infected epithelial cells from T84 monolayers: 2APB 10 μM
From the text: (§1) To quantify epithelial exfoliation, the number of Ng associated cells localized on the top of the epithelial monolayer (exfoliated) and the total number of Ng associated epithelial cells was counted by visual inspection in each randomly acquired image, to determine the percentage of exfoliated cells. To estimate the level of Ng penetration into the subepithelium, the number of non-exfoliated epithelial cells (in clearly visible epithelial monolayers) with basal Ng staining and the total number of Ng associated epithelial cells were visually counted to calculate the percentage of infected epithelial cells with Ng penetration into the basolateral side. To evaluate the disruption of the apical junction, the number of Ng associated epithelial cells that lost continuously apical staining of the junctional protein ZO1 and the total number of Ng associated epithelial cells were visually counted to calculate the percentage of Ng associated epithelial cells with apical junction disassembly. To quantify the redistribution of pMLC, the fluorescence intensity ratios (FIR) of pMLC staining at the apical to lateral in individual epithelial cells were determined using average FI as previously described.
(§2) Immunofluorescence analysis of polarized epithelial cells. Cells were pretreated with or without NMII kinase inhibitors, Y27632 (10 μM, EMD Millipore), ML-7 (10 μM, EMD Millipore) and PIK (100 μM) or Ca2+ inhibitors, 2APB (10 μM, EMD Millipore) and BAPTA (50 μM, EMD Millipore) for 1 h, and incubated with Ng in the presence or absence of the inhibitors for 6 h. Cell were washed and fixed with 4% paraformaldehyde, permeabilized with 1% Triton X100, and stained with anti-E-cadherin (BD Bioscience), anti-pMLC (Cell Signaling Technology, Carlsbad, Calif.), anti-Ng antibodies, and DAPI for nuclei. Cells were analyzed by CFM. Images were acquired as Z-series of 0.37 μm slices, and 3D composites obtained. Epithelial exfoliation will be quantified using xz images as described for the tissue explants. The distribution of E-cadherin and pMLC was quantitatively analyzed by measuring the FIR at the apical junctional to the cytoplasmic area (from xy images) or at the apical to lateral surface area (from xz images) in individual cells.

[2] = system: human endocervical tissue explants; test: Ng-induced epithelial exfoliation of human endocervical tissue explants (3D-CFM); format: cell-based; conditions: MS11ΔOpa, 24 h; ML-7 10 μM, PIK 100 μM
Method: (§3) Human endocervical tissue explants. The tissue explants were cultured as previously described. Endocervical tissues were obtained from patients undergoing voluntary hysterectomies and received within 24 h post-surgery. Samples were cut into ˜2.5 cm (L)×0.6 cm (W)×0.3 cm (H) pieces, incubated in CMRL-1066 (GIBCO, Gaithersburg, Md.) plus antibiotics for 24 h, and then switched to antibiotic-free media for 24 h.
(§4) Immunofluorescence analysis of human endocervical tissue explants. […] The tissue was fixed, embedded in gelatin, cryopreserved, sectioned crossing the apical and basolateral surfaces of the epithelium, stained for ZO1 (BD Bioscience), pMLC (Cell Signaling Technology, Beverly, Mass.), and Ng (51) by specific antibodies, and nuclei by DAPI (Life Technologies, Carlsbad, Calif.), and analyzed using CFM (Zeiss LSM 710, Carl Zeiss Microscopy LLC, Oberkochen, Germany). […]
To quantify epithelial exfoliation, the number of Ng associated cells localized on the top of the epithelial monolayer (exfoliated) and the total number of Ng associated epithelial cells was counted by visual inspection in each randomly acquired image, to determine the percentage of exfoliated cells. […] To quantify the redistribution of pMLC, the fluorescence intensity ratios (FIR) of pMLC staining at the apical to lateral in individual epithelial cells were determined using average FI as previously described.

polarized T84 cells [3] = test: Exfoliation of polarized T84 cells treated with inhibitors alone, without Ng; format: cell-based, human; conditions: no Ng inoculation, 6 h
Method: Polarized T84 cells were treated with inhibitors for 6 h, fixed, stained to visualize the cell nuclei, and imaged by 3D-CFM. The percentage of cell moving above the epithelial monolayer (dash lines) was determined from three independent experiments. Scale bar, 5 μm. *p≤0.05.
as §2

[4] = system: Neisseria gonorrhoeae MS11; test: Ng adherence, invasion, and transmigration assays on polarized epithelial cells; format: cell-based; conditions: for transmigration of MS11ΔOpa across the polarized T84 monolayer / Ng invasion into polarized T84 cells (gentamicin resistance): 6 h; for transmigration of MS11ΔOpa across the polarized T84 monolayer: ML-7 10 μM, PIK 100 μM, 2APB 10 μM, Y27632 10 μM; for Ng adherence to polarized T84 cells / Ng invasion into polarized T84 cells (gentamicin resistance): MS11ΔOpa, with inhibitors; for Ng adherence to polarized T84 cells: 3 h
Method: Ng adherence, invasion, and transmigration assays. The assays were performed as previously described. Briefly, polarized epithelial cells that were pretreated with or without the inhibitors for 1 h were incubated apically with Ng at 37° C. for 3 h for adherence and 6 h for invasion and transmigration assays with or without the inhibitors. Ng in the basolateral media were cultured and counted as transmigrated bacteria. Cells were washed and lysed to count adherent Ng. Cells were treated with gentamicin, washed, and lysed to count bacteria that were resistant to gentamicin treatment as invaded Ng.

[5] = system: Neisseria gonorrhoeae MS11ΔOpa; test: Ng subepithelial penetration in human endocervical tissue explants (3D-CFM); format: cell-based
Method: as §3
Immunofluorescence analysis of human endocervical tissue explants. Individual endocervical tissue pieces were incubated with Ng at a MOI of ˜10 (based on the average number of endocervical epithelial cells in endocervical tissue pieces) in the presence or absence of the MLCK inhibitor ML-7 (10 μM, EMD Millipore) and PIK (100 μM) (54) on transwells for 24 h. Unassociated Ng were removed by extensive washes at 6 and 12 h. The tissue was fixed, embedded in gelatin, cryopreserved, sectioned crossing the apical and basolateral surfaces of the epithelium, stained for ZO1 (BD Bioscience), pMLC (Cell Signaling Technology, Beverly, Mass.), and Ng (51) by specific antibodies, and nuclei by DAPI (Life Technologies, Carlsbad, Calif.), and analyzed using CFM (Zeiss LSM 710, Carl Zeiss Microscopy LLC, Oberkochen, Germany). […]
as §1, with “To evaluate the disruption of the apical junction, the number of Ng associated epithelial cells that lost continuously apical staining of the junctional protein ZO1 and the total number of Ng associated epithelial cells were visually counted to calculate the percentage of Ng associated epithelial cells with apical junction disassembly.” left out

[6] = system: phosphorylated myosin light chain (pMLC); test: pMLC (active NMII) redistribution in Ng-inoculated polarized T84 cells (3D-CFM); format: cell-based, human; conditions: for accumulation of pMLC at Ng adherent sites / apical:lateral FIR of pMLC: polarized T84, Ng 6 h; for junction:non-junction FIR of pMLC: polarized T84, Ng 6 h (Y27632: MS11ΔOpa); for junction:non-junction FIR of pMLC / apical:lateral FIR of pMLC: ML-7 10 μM, PIK 100 μM, Y27632 10 μM, 2APB 10 μM, BAPTA 50 μM
Method: Ng induce and Opa suppresses the redistribution of active non-muscle myosin II in polarized and endocervical epithelial cells. […] We examined the cellular distribution of active NMII after 6-h incubation with Ng, using antibody specific for phosphorylated myosin light chain (pMLC) and 3D-CFM. In uninfected polarized T84 (FIGS. 5A and 5C) and HEC-1-B cells (FIG. 10), pMLC was primarily localized at the apical junction. The polarized distribution of pMLC at the apical surface was quantified by the FIR of pMLC at the apical to the lateral (Apical:Lateral) membrane areas in individual cells using CFM images scanning across the apical and basolateral surfaces (FIGS. 5A and 5B). The polarized distribution pMLC at the apical junction was quantified by the FIR of pMLC at the junction to non-junction (Junction:Non-junction) areas of the apical region using CFM images scanning through the apical junction (FIGS. 5C and 5D). The apical inoculation of MS11Opa+ and MS11ΔOpa caused significant increases in apical:lateral FIR in both polarized T84 (FIGS. 5A and 5B) and HEC-1-B cells (FIG. 10), compared to the no Ng control. There were also significant increases in the junction:non-junction FIR in infected polarized T84 cells, compared to non-infected cells (FIGS. 5C and 5D). […] We further noticed that NMII at the apical surface appeared to accumulate at Ng adherent sites (FIG. 5A, middle panels, arrows).
as §2

[7] = system: phosphorylated myosin light chain (pMLC); test: pMLC redistribution in Ng-inoculated human endocervical tissue explants; format: cell-based; conditions: MS11ΔOpa-inoculated endocervical tissue explants, 24 h
Method: To explore the possibility of that Ng induced NMII redistribution occurs in vivo, we incubated human endocervical tissue explants with MS11ΔOpa for 24 h. Cryo-sections of the endocervical tissue were stained for pMLC, Ng and nuclei. In addition to its apical junction localization, pMLC was concentrated at the basal surface of the endocervical epithelial cells contacting with the basal membrane (FIG. 6A, upper panels). When incubated with MS11ΔOpa, there was a redistribution of pMLC from the basal to apical surface, resulting in a significant higher apical:lateral FIR in Ng inoculated tissue explants than that in no Ng control (FIG. 6), similar to what we observed in polarized T84 (FIGS. 5A and 5B) and HEC-1-B cells (FIG. 10). Furthermore, pMLC at the apical surface of the endocervical epithelial cells also concentrated at Ng adherent sites (FIG. 6A, second row, white arrows), but not at the membrane of cells neighboring exfoliating cells (FIG. 6A, second row, orange arrows). These observations confirm that Ng increase the relative amount of activated NMII at the apical surface of the endocervical epithelial cells in human tissue explants. […]
as §4
as §1, with “To quantify the redistribution of pMLC, the fluorescence intensity ratios (FIR) of pMLC staining at the apical to lateral in individual epithelial cells were determined using average FI as previously described.” left out

Neisseria gonorrhoeae = test: Ng growth; format: cell-based; conditions: FIG. 13
cytoplasmic Ca2+ = test: Calcium imaging of Ng-inoculated polarized epithelial cells (FluoForte, Fluo-4); format: cell-based, human; conditions: MS11Opa+ and MS11ΔOpa-inoculated polarized epithelial cells, 4 h; 2APB 10 μM, BAPTA 50 μM
From the text: Ng inoculation induces Ca^2+-dependent redistribution of active NMII in polarized epithelial cells. A major upstream signaling molecule of MLCK is calmodulin that is activated by Ca^2+. To investigate if Ca^2+ is involved in Ng induced redistribution of active NMII, we determined if Ng inoculation would induce Ca^2+ flux in polarized epithelial cells. We used two Ca^2+ indicators, FluoForte (FIGS. 7A and 7B) and Fluo-4 (FIG. 11) to determine the cytoplasmic Ca^2+ level. Polarized T84 (FIGS. 7A and 7B, and FIG. 11A and FIG. 11B) and HEC-1-B (FIG. 11C and FIG. 11D) were incubated apically with MS11Opa+ or MS11ΔOpa for 4 h. The cells were then loaded with the fluorescent Ca^2+ indicator, and the cell membrane marked by the membrane dye CellMask. Cells were imaged using 3D-CFM (FIG. 7A, and FIGS. 11A and 11C). The mean fluorescence intensity (MFI) of the Ca^2+ dyes in individual cells was measured to estimate the cytoplasmic level of Ca^2+ (FIG. 7B, and FIGS. 11B and 11D). […]
Calcium imaging. […] To quantify the intracellular Ca^2+ level, the cytoplasmic region of individual cells was manually selected based on the CellMask staining in randomly acquired confocal images, and the mean fluorescent intensity (MFI) of Fluoforte and Fluo-4 in the cytoplasmic region was measured using the NIH ImageJ software.

Row | Molecule | exfoliation of MS11ΔOpa-infected epithelial cells from T84 monolayers (polarized T84 cells [1]) | epithelial exfoliation of human endocervical tissue explants [2] | epithelial exfoliation with inhibitors alone (polarized T84 cells [3]) | transmigration of MS11ΔOpa across the polarized T84 monolayer [4] | Ng trans-migration across polarized human epithelial cells ([4]; FIG. 12C) | Ng adherence to polarized T84 cells [4] | Ng invasion into polarized T84 cells (gentamicin resistance) [4] | Ng penetration into human endocervical epithelia ([5]; FIG. 12A-B) | percentage of epithelial cells with basally associated Ng ([5]; MS11ΔOpa, 24 h, ML-7 10 μM or PIK 100 μM, 27% without inhibitor) [%] | accumulation of pMLC at Ng adherent sites [6] | junction:non-junction FIR of pMLC [6] | apical:lateral FIR of pMLC [6] | pMLC accumulation at Ng adherent sites [7] | apical:lateral FIR of pMLC ([7]; ML-7 10 μM, PIK 100 μM) | Ng growth (Neisseria gonorrhoeae) | MFI of the Ca2+ indicators (cytoplasmic Ca2+ level) (cytoplasmic Ca2+) | exfoliation of MS11Opa+-infected epithelial cells from T84 monolayers (polarized T84 cells [1]; MS11Opa+)
1 | PIK: peptide MLCK inhibitor comprising SEQ ID NO:1 (lys-arg-arg-tyr-lys-tyr-lys-lys-arg) with at least one D-amino acid; from U.S. Pat. No. 7,585,844 (KRRYKYKKR; also: at least one D-amino acid, places not given here) | reduced the exfoliation | decreased the epithelial exfoliation of human endocervical tissue explants to the basal level | did not affect epithelial exfoliation | significantly reduced the transmigration | inhibits | none of these inhibitors had any significant effect | none of these inhibitors had any significant effect | inhibits Ng penetration; also recorded: robust inhibition | 7.1 | significantly reduced | significantly reduced | significantly reduced | significantly reduced | significantly reduced | suppresses Ng growth | – | –
2 | O=C(O)CN(CC(=O)O)c1ccccc1OCCOc1ccccc1N(CC(=O)O)CC(=O)O [BAPTA] | – | – | – | – | – | – | – | – | – | decreased | decreased | decreased | – | – | – | back to the basal level | –
3 | Cc1ccc2c(c1)C(=O)C1(O)CCN(c3ccccc3)C1=N2 (centres unmarked) [blebbistatin] | – | – | increased epithelial exfoliation | – | – | – | – | – | – | – | – | – | – | – | – | – | –
4 | C[C@@H](N)[C@H]1CC[C@H](C(=O)Nc2ccncc2)CC1 [Y27632] | did not significantly change the percentage of epithelial exfoliation | – | – | had no impact | – | had no impact | had no impact | – | – | – | further increased | – | – | – | – | – | did not significantly change the percentage of epithelial exfoliation
